According to patent US8796289B2 (AbbVie Inc., priority 2011, dated 2014):
pKi: −log10 of the molar value.

What follows are compounds tested against GST-tagged-Wee1 kinase (Homo sapiens, UniProt P30291) (assay: Wee1 time-resolved fluorescence equilibrium binding assay (displacement of Oregon Green-labeled ATP-competitive kinase probe)).
Protocol: Wee1 kinase was assayed using a time-resolved fluorescence equilibrium binding assay monitoring displacement of a rapidly reversible Oregon Green-labeled ATP-competitive kinase probe (N-(2-(2-(2-(4-(4-(5-chloro-4-(2-(1-hydroxycyclobutyl)thiazol-5-yl)-1H-pyrrolo[2,3-b]pyridin-2-yl)phenyl)piperazin-1-yl)ethoxy)ethoxy)ethyl)-2′,7′-difluoro-3′,6′-dihydroxy-3-oxo-3H-spiro[isobenzofuran-1,9′-xanthene]-5-carboxamide) by competitive Wee1 inhibitors.

Chain of GST-tagged-Wee1 kinase (P30291 whole entry): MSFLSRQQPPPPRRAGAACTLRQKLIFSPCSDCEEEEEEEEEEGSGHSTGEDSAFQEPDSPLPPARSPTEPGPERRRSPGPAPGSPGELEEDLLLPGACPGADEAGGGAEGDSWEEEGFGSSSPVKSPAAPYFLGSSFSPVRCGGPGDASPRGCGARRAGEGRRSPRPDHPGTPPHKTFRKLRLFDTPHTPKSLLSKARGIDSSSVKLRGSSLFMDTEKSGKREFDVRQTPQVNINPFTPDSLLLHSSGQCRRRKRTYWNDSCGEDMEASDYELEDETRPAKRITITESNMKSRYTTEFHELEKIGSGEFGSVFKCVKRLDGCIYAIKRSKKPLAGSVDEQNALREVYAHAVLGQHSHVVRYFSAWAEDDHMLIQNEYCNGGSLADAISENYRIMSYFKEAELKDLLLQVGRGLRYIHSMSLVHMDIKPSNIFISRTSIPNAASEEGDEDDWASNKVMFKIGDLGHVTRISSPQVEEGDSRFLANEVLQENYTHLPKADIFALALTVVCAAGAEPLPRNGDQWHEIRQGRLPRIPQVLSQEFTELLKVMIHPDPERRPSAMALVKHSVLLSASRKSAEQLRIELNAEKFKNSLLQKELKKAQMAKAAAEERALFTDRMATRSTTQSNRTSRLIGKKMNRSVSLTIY

Compound	pKi
CN1CCN(c2ccc(Nc3ncc4c(=O)n(-c5c(Cl)cccc5Cl)nc(-c5cccc(-c6ccc[nH]6)c5)c4n3)cc2)CC1 [Example 92, 6-(2,6-dichlorophenyl)-2-{[4-(4-methylpiperazin-1-yl)phenyl]amino}-8-[3-(1H-pyrrol-2-yl)phenyl]pyrimido[4,5-d]pyridazin-5(6H)-one]	8.10
CN1CCN(c2ccc(Nc3ncc4c(=O)n(-c5c(F)cccc5Cl)nc(-c5ccccn5)c4n3)cc2)CC1 [Example 309, 6-(2-chloro-6-fluorophenyl)-2-{[4-(4-methylpiperazin-1-yl)phenyl]amino}-8-(pyridin-2-yl)pyrimido[4,5-d]pyridazin-5(6H)-one]	6.17
C=Cn1ccc(-c2nn(-c3c(Cl)cccc3Cl)c(=O)c3cnc(Nc4ccc(N5CCN(C)CC5)cc4)nc23)n1 [Example 236, 6-(2,6-dichlorophenyl)-8-(1-ethenyl-1H-pyrazol-3-yl)-2-{[4-(4-methylpiperazin-1-yl)phenyl]amino}pyrimido[4,5-d]pyridazin-5(6H)-one]	> 9.00
CN1Cc2cc(Nc3ncc4c(=O)n(C5CCNCC5)nc(-c5ccccn5)c4n3)ccc2C(C)(C)C1 [Example 304, 6-(piperidin-4-yl)-8-(pyridin-2-yl)-2-[(2,4,4-trimethyl-1,2,3,4-tetrahydroisoquinolin-7-yl)amino]pyrimido[4,5-d]pyridazin-5(6H)-one]	6.21
CC(C)n1nc(-c2ccccn2)c2nc(Nc3ccc(N4CCN(C)CC4)cc3)ncc2c1=O [Example 272, 2-{[4-(4-methylpiperazin-1-yl)phenyl]amino}-6-(propan-2-yl)-8-(pyridin-2-yl)pyrimido[4,5-d]pyridazin-5(6H)-one]	7.00
C=CCn1nc(-c2cccc(Br)c2)c2nc(Nc3ccc(N4CCN(C)CC4)cc3)ncc2c1=O [Example 68, 6-allyl-8-(3-bromophenyl)-2-{[4-(4-methylpiperazin-1-yl)phenyl]amino}pyrimido[4,5-d]pyridazin-5(6H)-one]	7.85
CN1CCN(c2ccc(Nc3ncc4c(=O)n(-c5ccccc5Cl)nc(-c5cccc(N6CCCC6)n5)c4n3)cc2)CC1 [Example 181, 6-(2-chlorophenyl)-2-{[4-(4-methylpiperazin-1-yl)phenyl]amino}-8-[6-(pyrrolidin-1-yl)pyridin-2-yl]pyrimido[4,5-d]pyridazin-5(6H)-one]	8.22
CN1CCCC(n2nc(-c3ccccn3)c3nc(Nc4ccc(N5CCNCC5)cc4)ncc3c2=O)C1 (stereo not drawn) [Example 334, 6-(1-methylpiperidin-3-yl)-2-{[4-(piperazin-1-yl)phenyl]amino}-8-(pyridin-2-yl)pyrimido[4,5-d]pyridazin-5(6H)-one]	6.19
CNC(=O)c1cccc(-c2nn(-c3c(Cl)cccc3Cl)c(=O)c3cnc(Nc4ccc(N5CCN(C)CC5)cc4)nc23)c1 [Example 191, 3-[6-(2,6-dichlorophenyl)-2-{[4-(4-methylpiperazin-1-yl)phenyl]amino}-5-oxo-5,6-dihydropyrimido[4,5-d]pyridazin-8-yl]-N-methylbenzamide]	10.52
CN1CCN(c2ccc(Nc3ncc4c(=O)n(-c5c(Cl)cncc5Cl)nc(-c5ccccn5)c4n3)cc2)CC1 [Example 362, 6-(3,5-dichloropyridin-4-yl)-2-{[4-(4-methylpiperazin-1-yl)phenyl]amino}-8-(pyridin-2-yl)pyrimido[4,5-d]pyridazin-5(6H)-one]	8.74
C=CCn1nc(-c2ccccc2F)c2nc(Nc3ccc(N4CCN(C)CC4)cc3)ncc2c1=O [Example 35, 6-allyl-8-(2-fluorophenyl)-2-{[4-(4-methylpiperazin-1-yl)phenyl]amino}pyrimido[4,5-d]pyridazin-5(6H)-one]	7.74
CN(C)CCn1ccc(-c2nn(-c3c(Cl)cccc3Cl)c(=O)c3cnc(Nc4ccc(N5CCN(C)CC5)cc4)nc23)n1 [Example 240, 6-(2,6-dichlorophenyl)-8-{1-[2-(dimethylamino)ethyl]-1H-pyrazol-3-yl}-2-{[4-(4-methylpiperazin-1-yl)phenyl]amino}pyrimido[4,5-d]pyridazin-5(6H)-one]	9.30
CN1Cc2cc(Nc3ncc4c(=O)n(-c5ccccn5)nc(-c5ccccn5)c4n3)ccc2C(C)(C)C1 [Example 287]	7.96
CN1CCC(n2nc(-c3ccccn3)c3nc(Nc4ccc5c(c4)CN(C)CC5(C)C)ncc3c2=O)CC1 [Example 328, 6-(1-methylpiperidin-4-yl)-8-(pyridin-2-yl)-2-[(2,4,4-trimethyl-1,2,3,4-tetrahydroisoquinolin-7-yl)amino]pyrimido[4,5-d]pyridazin-5(6H)-one]	6.66

Continued, values first:

pKi	Compound
8.03	Cc1nn(-c2c(Cl)cccc2Cl)c(=O)c2cnc(Nc3cccc(C(=O)N4CCS(=O)(=O)CC4)c3)nc12 [Example 529, 6-(2,6-dichlorophenyl)-2-({3-[(1,1-dioxidothiomorpholin-4-yl)carbonyl]phenyl}amino)-8-methylpyrimido[4,5-d]pyridazin-5(6H)-one]
9.40	CN1CCN(c2ccc(Nc3ncc4c(=O)n(-c5c(Cl)cccc5Cl)nc(-c5cnccn5)c4n3)cc2)CC1 [Example 271, 6-(2,6-dichlorophenyl)-2-{[4-(4-methylpiperazin-1-yl)phenyl]amino}-8-(pyrazin-2-yl)pyrimido[4,5-d]pyridazin-5(6H)-one]
9.44	Cc1nn(-c2c(Cl)cccc2Cl)c(=O)c2cnc(Nc3ccc4c(c3)CCN(C)C4(C)C)nc12 [Example 453, 6-(2,6-dichlorophenyl)-8-methyl-2-[(1,1,2-trimethyl-1,2,3,4-tetrahydroisoquinolin-6-yl)amino]pyrimido[4,5-d]pyridazin-5(6H)-one]
9.35	O=c1c2cnc(Nc3ccc4c(c3)CNCC43CC3)nc2c(C(F)(F)F)nn1-c1c(Cl)cccc1Cl [Example 420, 6-(2,6-dichlorophenyl)-2-(2′,3′-dihydro-1′H-spiro[cyclopropane-1,4′-isoquinolin]-7′-ylamino)-8-(trifluoromethyl)pyrimido[4,5-d]pyridazin-5(6H)-one]
9.72	Cc1nn(-c2c(Cl)cccc2Cl)c(=O)c2cnc(Nc3cccc(N4CCN(CCCN(C)C)CC4)c3)nc12 [Example 515, 6-(2,6-dichlorophenyl)-2-[(3-{4-[3-(dimethylamino)propyl]piperazin-1-yl}phenyl)amino]-8-methylpyrimido[4,5-d]pyridazin-5(6H)-one]
9.64	Cc1cccc(Cl)c1-n1nc(C)c2nc(Nc3ccc4c(c3)CN(C)CC4(C)C)ncc2c1=O [Example 498, 6-(2-chloro-6-methylphenyl)-8-methyl-2-[(2,4,4-trimethyl-1,2,3,4-tetrahydroisoquinolin-7-yl)amino]pyrimido[4,5-d]pyridazin-5(6H)-one]
8.96	Cc1nn(-c2c(Cl)cccc2Cl)c(=O)c2cnc(Nc3cccc(N4CCN(CCCO)CC4)c3)nc12 [Example 510, 6-(2,6-dichlorophenyl)-2-({3-[4-(3-hydroxypropyl)piperazin-1-yl]phenyl}amino)-8-methylpyrimido[4,5-d]pyridazin-5(6H)-one]
9.34	Cc1nn(-c2c(Cl)cccc2Cl)c(=O)c2cnc(Nc3ccc4c(c3)CCN(C)C4)nc12 [Example 435, 6-(2,6-dichlorophenyl)-8-methyl-2-[(2-methyl-1,2,3,4-tetrahydroisoquinolin-6-yl)amino]pyrimido[4,5-d]pyridazin-5(6H)-one]
> 9.00	O=c1c2cnc(Nc3ccc(N4CCNCC4)cc3)nc2c(-c2cccc(F)n2)nn1-c1c(Cl)cccc1Cl [Example 226, 6-(2,6-dichlorophenyl)-8-(6-fluoropyridin-2-yl)-2-{[4-(piperazin-1-yl)phenyl]amino}pyrimido[4,5-d]pyridazin-5(6H)-one]
9.28	O=c1c2cnc(Nc3ccc4c(c3)CNCC43CC3)nc2c(C2CCC2)nn1-c1c(Cl)cccc1Cl [Example 281, 8-cyclobutyl-6-(2,6-dichlorophenyl)-2-(2′,3′-dihydro-1′H-spiro[cyclopropane-1,4′-isoquinolin]-7′-ylamino)pyrimido[4,5-d]pyridazin-5(6H)-one]
9.52	CN1CCN(c2ccc(Nc3ncc4c(=O)n(-c5c(Cl)cccc5Cl)nc(-c5ccnc(C(=O)N6CCCC6)c5)c4n3)cc2)CC1 [Example 225, 6-(2,6-dichlorophenyl)-2-{[4-(4-methylpiperazin-1-yl)phenyl]amino}-8-[2-(pyrrolidin-1-ylcarbonyl)pyridin-4-yl]pyrimido[4,5-d]pyridazin-5(6H)-one]
10.22	CN1CCN(c2ccc(Nc3ncc4c(=O)n(-c5c(Cl)cccc5Cl)nc(-c5ccco5)c4n3)cc2)CC1 [Example 69, 6-(2,6-dichlorophenyl)-8-(2-furyl)-2-{[4-(4-methylpiperazin-1-yl)phenyl]amino}pyrimido[4,5-d]pyridazin-5(6H)-one]
9.10	Cc1nn(-c2c(Cl)cccc2Cl)c(=O)c2cnc(Nc3ccc4c(c3)CCN(C(=O)C(C)(C)O)C4)nc12 [Example 437, 6-(2,6-dichlorophenyl)-2-{[2-(2-hydroxy-2-methylpropanoyl)-1,2,3,4-tetrahydroisoquinolin-6-yl]amino}-8-methylpyrimido[4,5-d]pyridazin-5(6H)-one]
8.57	O=c1c2cnc(Nc3ccc(N4CCN(C5CCC5)CC4)cc3)nc2c(-c2ccncc2)nn1-c1c(Cl)cccc1Cl [Example 301, 2-{[4-(4-cyclobutylpiperazin-1-yl)phenyl]amino}-6-(2,6-dichlorophenyl)-8-(pyridin-4-yl)pyrimido[4,5-d]pyridazin-5(6H)-one]
9.68	Cc1cccc(Cl)c1-n1nc(C)c2nc(Nc3ccc4c(c3)CN(CCO)CC4)ncc2c1=O [Example 499, 6-(2-chloro-6-methylphenyl)-2-{[2-(2-hydroxyethyl)-1,2,3,4-tetrahydroisoquinolin-7-yl]amino}-8-methylpyrimido[4,5-d]pyridazin-5(6H)-one]
9.30	Cc1nn(-c2c(Cl)cccc2Cl)c(=O)c2cnc(Nc3cccc(C(=O)NC4CCN(C)CC4)c3)nc12 [Example 523, 3-{[6-(2,6-dichlorophenyl)-8-methyl-5-oxo-5,6-dihydropyrimido[4,5-d]pyridazin-2-yl]amino}-N-(1-methylpiperidin-4-yl)benzamide]
